The experiment has as its target human NaV 1.8 (Homo sapiens, UniProt Q9Y5Y9). In words: E-VIPR assay for detecting and measuring NaV inhibition properties. The note with it: HEK cells expressing truncated human NaV 1.8, read-out: IC50. Format: cell-based. A digest of the protocol:
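Membrane-potential (coumarin/oxonol) readout after 10 s of 10 Hz biphasic electrical stimulation on E-VIPR. Compounds: 11-point 3-fold dilutions, […], 0.625% DMSO, 30 min at room temperature, human serum optional. Cells: HEK expressing truncated human NaV1.8 co-transduced with KIR2.1.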

Where [1] appears, read: E-VIPR assay conducted in the presence of human serum.

Like-named read-outs stand apart in the source and are kept apart here.

Usually IC50 stands for the concentration needed to halve the response being measured.

Sequence of human NaV 1.8 (Q9Y5Y9 whole entry, looked up, the tested form may be a part): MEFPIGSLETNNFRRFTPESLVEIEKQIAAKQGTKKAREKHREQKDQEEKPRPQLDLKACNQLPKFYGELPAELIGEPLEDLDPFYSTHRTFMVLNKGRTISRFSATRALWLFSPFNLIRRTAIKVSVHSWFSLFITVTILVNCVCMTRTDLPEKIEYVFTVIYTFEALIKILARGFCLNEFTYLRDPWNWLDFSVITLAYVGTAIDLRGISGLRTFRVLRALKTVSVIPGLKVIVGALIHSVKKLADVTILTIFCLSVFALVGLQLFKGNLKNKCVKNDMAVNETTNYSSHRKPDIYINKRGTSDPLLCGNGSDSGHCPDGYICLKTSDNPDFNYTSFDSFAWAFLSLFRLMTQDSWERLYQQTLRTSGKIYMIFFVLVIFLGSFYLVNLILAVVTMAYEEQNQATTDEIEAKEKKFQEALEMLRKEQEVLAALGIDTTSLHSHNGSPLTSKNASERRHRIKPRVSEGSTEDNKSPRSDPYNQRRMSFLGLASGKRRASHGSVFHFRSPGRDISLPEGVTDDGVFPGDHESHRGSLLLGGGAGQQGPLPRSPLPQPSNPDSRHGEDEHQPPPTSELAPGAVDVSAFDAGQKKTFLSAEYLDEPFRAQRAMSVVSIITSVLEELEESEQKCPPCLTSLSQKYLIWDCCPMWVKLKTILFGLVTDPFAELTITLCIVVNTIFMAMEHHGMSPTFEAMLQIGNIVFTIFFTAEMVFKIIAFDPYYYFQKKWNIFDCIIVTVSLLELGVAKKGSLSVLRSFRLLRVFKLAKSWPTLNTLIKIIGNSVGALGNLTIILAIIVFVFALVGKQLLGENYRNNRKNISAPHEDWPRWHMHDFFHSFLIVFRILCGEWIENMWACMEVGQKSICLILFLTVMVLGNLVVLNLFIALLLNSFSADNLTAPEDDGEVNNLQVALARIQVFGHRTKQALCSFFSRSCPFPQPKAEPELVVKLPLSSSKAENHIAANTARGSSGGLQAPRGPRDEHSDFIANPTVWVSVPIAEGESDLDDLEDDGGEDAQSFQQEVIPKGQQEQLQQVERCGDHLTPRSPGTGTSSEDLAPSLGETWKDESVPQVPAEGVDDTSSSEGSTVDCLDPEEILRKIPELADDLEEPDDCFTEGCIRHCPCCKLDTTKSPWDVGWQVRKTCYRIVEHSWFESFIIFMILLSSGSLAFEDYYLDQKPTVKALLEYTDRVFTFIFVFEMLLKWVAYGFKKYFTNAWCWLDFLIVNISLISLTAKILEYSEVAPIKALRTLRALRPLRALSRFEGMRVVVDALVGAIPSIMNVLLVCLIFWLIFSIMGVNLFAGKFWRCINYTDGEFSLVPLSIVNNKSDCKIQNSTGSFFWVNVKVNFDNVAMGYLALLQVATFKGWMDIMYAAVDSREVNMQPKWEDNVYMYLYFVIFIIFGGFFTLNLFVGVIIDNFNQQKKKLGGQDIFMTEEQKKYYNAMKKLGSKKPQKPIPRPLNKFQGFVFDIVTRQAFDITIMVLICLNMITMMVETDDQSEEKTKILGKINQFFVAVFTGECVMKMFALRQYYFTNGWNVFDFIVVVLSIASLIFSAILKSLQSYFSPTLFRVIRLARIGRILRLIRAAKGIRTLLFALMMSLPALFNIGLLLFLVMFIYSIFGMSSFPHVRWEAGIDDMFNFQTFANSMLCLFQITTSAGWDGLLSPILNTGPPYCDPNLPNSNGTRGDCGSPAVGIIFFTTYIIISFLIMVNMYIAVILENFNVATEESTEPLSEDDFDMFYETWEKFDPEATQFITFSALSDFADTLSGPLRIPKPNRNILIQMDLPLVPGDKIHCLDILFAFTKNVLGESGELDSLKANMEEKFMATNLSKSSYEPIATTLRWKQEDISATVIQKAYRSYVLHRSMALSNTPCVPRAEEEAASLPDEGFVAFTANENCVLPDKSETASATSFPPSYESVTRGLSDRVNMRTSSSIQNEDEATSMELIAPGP

Regarding `[2H]C([2H])([2H])Oc1cc(OC(F)(F)F)ccc1Oc1cc(C2CCC(OC)CC2)cc(F)c1C(=O)Nc1ccnc(C(N)=O)c1` (single isomer, unassigned) [1017 (first diastereomer), 4-[[2-fluoro-4-(4-methoxycyclohexyl)-6-[2-(trideuteriomethoxy)-4-(trifluoromethoxy)phenoxy]benzoyl]amino]pyridine-2-carboxamide], under setting [1], the IC50 is 252 nM.

Turning to `[2H]C([2H])([2H])Oc1cc(OC(F)(F)F)ccc1Oc1cc(-c2ccc(C)cc2)cc(F)c1C(=O)Nc1ccnc(C(N)=O)c1` [Compound 88, 4-[[2-fluoro-4-(p-tolyl)-6-[2-(trideuteriomethoxy)-4-(trifluoromethoxy)phenoxy]benzoyl]amino]pyridine-2-carboxamide], the IC50 under setting [1] was 39 nM.

On to `Cc1c(F)ccc(Oc2ccc(C(F)(F)F)c(F)c2C(=O)Nc2ccc(C(N)=O)nc2)c1C` [Compound 214, 5-[[2-fluoro-6-(4-fluoro-2,3-dimethyl-phenoxy)-3-(trifluoromethyl)benzoyl]amino]pyridine-2-carboxamide], for which, under setting [1], the IC50 was more than 3000 nM.

In the case of `COc1c(Oc2cc(Cl)c(C)c(F)c2C(=O)Nc2ccnc(C(N)=O)c2)ccc(F)c1F` [Compound 373, 4-[[4-chloro-6-(3,4-difluoro-2-methoxy-phenoxy)-2-fluoro-3-methyl-benzoyl]amino]pyridine-2-carboxamide], the IC50 under setting [1] came to 6 nM.

Consider `COc1c(Oc2ccc(C(F)(F)F)c(Br)c2C(=O)Nc2ccnc(C(N)=O)c2)ccc(OC(F)(F)F)c1F` [Compound 195], for which, under setting [1], the IC50 turned out to be 5 nM.

Consider `Cc1c(C(F)(F)F)ccc(Oc2ccc(F)cc2F)c1C(=O)Nc1ccnc(C(N)=O)c1` [Compound 131, 4-[[6-(2,4-difluorophenoxy)-2-methyl-3-(trifluoromethyl)benzoyl]amino]pyridine-2-carboxamide], for which the IC50 under setting [1] was found to be 155 nM.

In the case of `[2H]C([2H])([2H])Oc1cc(OC(F)(F)F)ccc1Oc1ccc(C(F)(F)F)c(C)c1C(=O)Nc1ccc(C(N)=O)nc1` [Compound 116, 5-[[2-methyl-6-[2-(trideuteriomethoxy)-4-(trifluoromethoxy)phenoxy]-3-(trifluoromethyl)benzoyl]amino]pyridine-2-carboxamide], the IC50 under setting [1] stood at 25 nM.

Regarding `Cc1cc(Cl)cc(Cl)c1Oc1ccc(C(F)(F)F)c(F)c1C(=O)Nc1ccc(C(N)=O)nc1` [Compound 213, 5-[[6-(2,4-dichloro-6-methyl-phenoxy)-2-fluoro-3-(trifluoromethyl)benzoyl]amino]pyridine-2-carboxamide], the IC50 under setting [1] is more than 3000 nM.

`COc1cc(OC(F)(F)F)ccc1Oc1ccc(C(F)(F)F)c(OCC(C)C)c1C(=O)Nc1ccnc(C(N)=O)c1` [Compound 82, 4-[[2-isobutoxy-6-[2-methoxy-4-(trifluoromethoxy)phenoxy]-3-(trifluoromethyl)benzoyl]amino]pyridine-2-carboxamide]: under setting [1], the IC50 was more than 3000 nM.

`COc1cc(OC(F)(F)F)ccc1Oc1cc(C2=CCC(C(C)(C)C)CC2)cc(F)c1C(=O)Nc1ccnc(C(N)=O)c1` (stereo not drawn) [Compound 1016, 4-[[4-(4-tert-butylcyclohexen-1-yl)-2-fluoro-6-[2-methoxy-4-(trifluoromethoxy)phenoxy]benzoyl]amino]pyridine-2-carboxamide]: the IC50 under setting [1] was found to be 60 nM.

With `[2H]C([2H])([2H])Oc1c(Oc2ccc(C(F)F)c(OC)c2C(=O)Nc2ccnc(C(N)=O)c2)ccc(OC(F)(F)F)c1F` [Compound 319, 4-[[3-(difluoromethyl)-6-[3-fluoro-2-(trideuteriomethoxy)-4-(trifluoromethoxy)phenoxy]-2-methoxy-benzoyl]amino]pyridine-2-carboxamide], the concentration for half-maximal inhibition (IC50) under setting [1] was 5.2 nM.

`CC(C)(C)c1cc(Cc2ccccc2)c(C(=O)Nc2ccnc(C(N)=O)c2)cn1` [Compound 349, 4-benzyl-6-tert-butyl-N-(2-carbamoyl-4-pyridyl)pyridine-3-carboxamide]: under setting [1], the IC50 is more than 3000 nM.

For `COc1c(Oc2ccc(C(F)(F)F)c(C)c2C(=O)Nc2cnc(C(N)=O)cn2)ccc(OC(F)(F)F)c1F` [Compound 316, 5-[[6-[3-fluoro-2-methoxy-4-(trifluoromethoxy)phenoxy]-2-methyl-3-(trifluoromethyl)benzoyl]amino]pyrazine-2-carboxamide], the IC50 under setting [1] was 24 nM.

For the compound `COc1cc(OC(F)(F)F)ccc1Oc1ccc(C(F)(F)F)c(C)c1C(=O)Nc1ccnc(C(N)=O)c1` [Compound 151, 4-[[6-[2-methoxy-4-(trifluoromethoxy)phenoxy]-2-methyl-3-(trifluoromethyl)benzoyl]amino]pyridine-2-carboxamide], the IC50 under setting [1] stood at 4 nM.

On to `COc1cc(OC(F)(F)F)ccc1Oc1cc(C2CCC(OC)CC2)ccc1C(=O)Nc1ccnc(C(N)=O)c1` (single isomer, unassigned) [1032 (first diastereomer), 4-[[4-(4-methoxycyclohexyl)-2-[2-methoxy-4-(trifluoromethoxy)phenoxy]benzoyl]amino]pyridine-2-carboxamide], for which the IC50 under setting [1] stood at 524 nM.

With `[2H]C([2H])([2H])Oc1cc(OC(F)(F)F)ccc1Oc1ccc2c(c1C(=O)Nc1ccnc(C(N)=O)c1)OC(F)(F)O2` [Compound 114, 4-[[2,2-difluoro-5-[2-(trideuteriomethoxy)-4-(trifluoromethoxy)phenoxy]-1,3-benzodioxole-4-carbonyl]amino]pyridine-2-carboxamide], the IC50 under setting [1] amounted to 510 nM.

Take `NC(=O)c1cc(NC(=O)c2cc(C(F)(F)F)ccc2Oc2ccc(F)cc2F)ccn1` [Compound 17, 4-[[2-(2,4-difluorophenoxy)-5-(trifluoromethyl)benzoyl]amino]pyridine-2-carboxamide]: the half-inhibitory concentration (IC50) under setting [1] is more than 3000 nM.

For `COc1c(Oc2cnc(C(F)(F)F)c(OC)c2C(=O)Nc2cc(C(N)=O)ncc2C)ccc(OC(F)(F)F)c1F` [Compound 334, N-(2-carbamoyl-5-methyl-4-pyridyl)-5-[3-fluoro-2-methoxy-4-(trifluoromethoxy)phenoxy]-3-methoxy-2-(trifluoromethyl)pyridine-4-carboxamide], under setting [1], the half-maximal inhibitory concentration (IC50) is 7 nM.

Turning to `COc1c(Oc2ccc(Cl)c(F)c2C(=O)Nc2ccnc(C(N)=O)c2)ccc(OC(F)(F)F)c1F` [Compound 305, 4-[[3-chloro-2-fluoro-6-[3-fluoro-2-methoxy-4-(trifluoromethoxy)phenoxy]benzoyl]amino]pyridine-2-carboxamide], the IC50 under setting [1] turned out to be 2.3 nM.

On to `CC(C)Oc1ccc(Oc2ccc(C(F)(F)F)c(F)c2C(=O)Nc2ccnc(C(N)=O)c2)cc1Cl` [Compound 33, 4-[[6-(3-chloro-4-isopropoxy-phenoxy)-2-fluoro-3-(trifluoromethyl)benzoyl]amino]pyridine-2-carboxamide], for which the IC50 under setting [1] worked out at 17 nM.

`COc1cc(Oc2ccc(F)cc2Cl)c(C(=O)Nc2cnc(C(N)=O)nc2)c(F)c1C(F)(F)F` [Compound 366, 5-[[6-(2-chloro-4-fluoro-phenoxy)-2-fluoro-4-methoxy-3-(trifluoromethyl)benzoyl]amino]pyrimidine-2-carboxamide]: the half-maximal inhibitory concentration (IC50) (E-VIPR assay conducted in the absence of human serum (compounds marked *)) is 13 nM.

Regarding `NC(=O)c1ccc(NC(=O)c2c(Oc3ccc(OC(F)(F)F)c(F)c3)ccc(C(F)(F)F)c2F)cn1` [Compound 216, 5-[[2-fluoro-6-[3-fluoro-4-(trifluoromethoxy)phenoxy]-3-(trifluoromethyl)benzoyl]amino]pyridine-2-carboxamide], the IC50 under setting [1] was 340 nM.

In the case of `NC(=O)c1cc(NC(=O)c2ccc(C(F)(F)F)cc2Oc2ccc(F)c3c2OCC3)ccn1` [Compound 165, 4-[[2-[(4-fluoro-2,3-dihydrobenzofuran-7-yl)oxy]-4-(trifluoromethyl)benzoyl]amino]pyridine-2-carboxamide], the IC50 under setting [1] is more than 3000 nM.

Take `Cc1c(C(F)(F)F)ccc(Oc2ccc(F)c(F)c2F)c1C(=O)Nc1ccc(C(N)=O)nc1` [Compound 225, 5-[[2-methyl-3-(trifluoromethyl)-6-(2,3,4-trifluorophenoxy)benzoyl]amino]pyridine-2-carboxamide]: the IC50 under setting [1] worked out at 1500 nM.

As to `COc1c(Oc2cnc(C(F)(F)F)c(F)c2C(=O)Nc2ccnc(C(N)=O)c2)ccc(OC(F)(F)F)c1F` [Compound 332, N-(2-carbamoyl-4-pyridyl)-3-fluoro-5-[3-fluoro-2-methoxy-4-(trifluoromethoxy)phenoxy]-2-(trifluoromethyl)pyridine-4-carboxamide], under setting [1], the IC50 came out at 2.7 nM.

On to `NC(=O)c1cc(NC(=O)c2ccc(C(F)(F)F)cc2-c2ccc(OC(F)(F)F)cc2)ccn1` [Compound 254, 4-[[2-[4-(trifluoromethoxy)phenyl]-4-(trifluoromethyl)benzoyl]amino]pyridine-2-carboxamide], for which the IC50 under setting [1] is more than 3000 nM.

With `CCc1nc(C(=O)Nc2ccnc(C(N)=O)c2)c(Oc2ccc(OC(F)(F)F)cc2OC)cc1C(F)(F)F` [Compound 274, N-(2-carbamoyl-4-pyridyl)-6-ethyl-3-[2-methoxy-4-(trifluoromethoxy)phenoxy]-5-(trifluoromethyl)pyridine-2-carboxamide], the IC50 under setting [1] was determined as 39.3 nM.

Consider `NC(=O)c1cc(NC(=O)c2ccc(C(F)(F)F)cc2Oc2ccc(F)c(F)c2)ccn1` [Compound 163, 4-[[2-(3,4-difluorophenoxy)-4-(trifluoromethyl)benzoyl]amino]pyridine-2-carboxamide], for which the 50% inhibitory concentration (IC50) under setting [1] was more than 3000 nM.

`COc1cc(OC(F)(F)F)ccc1Oc1ccc(C(F)(F)F)c(OCC2CC2(F)F)c1C(=O)Nc1ccnc(C(N)=O)c1` (stereo not drawn) [Compound 86, 4-[[2-[(2,2-difluorocyclopropyl)methoxy]-6-[2-methoxy-4-(trifluoromethoxy)phenoxy]-3-(trifluoromethyl)benzoyl]amino]pyridine-2-carboxamide]: the IC50 under setting [1] worked out at 1000 nM.

For the compound `COc1c(Oc2ccc(C(F)(F)F)c(F)c2C(=O)Nc2ccc(C(N)=O)nc2)ccc(OC(F)(F)F)c1F` [Compound 209, 5-[[2-fluoro-6-[3-fluoro-2-methoxy-4-(trifluoromethoxy)phenoxy]-3-(trifluoromethyl)benzoyl]amino]pyridine-2-carboxamide], under setting [1], the IC50 came to 8 nM.

For the origin of these results see US12441703B2, “Carboxamides as modulators of sodium channels” (VERTEX PHARMACEUTICALS INCORPORATED, priority 2019, dated 2025).
